From US10576077B2, “Pharmaceutical salt forms of Cepharanthine and Tetrandrine” (Southwest Research Institute, priority 2015, dated 2020)
Counter-ions that a name gives are not always drawn.

What was measured:
[1] = assay type: physicochemical
Description: A small amount of the sample (0.6 ml) was removed from each vial and centrifuged to collect 0.3 ml clear supernatant.
The sample was filtered through a 0.45 μm PTFE syringe filter and the filtrate sent for HPLC analysis (Table 10).

rat test animals = experiment: Oral dosing of concentrated CEPN.2HCl water solutions in rats; assay type: in vivo; conditions: ENG sample, concentrated water solution
[2] = Solubility of Cepharanthine salts in water; assay type: physicochemical

Compound | Sample solubility [1] [mg/mL] | further results
Cepharanthine.2HCl [CEPN.2HCl] |  | Effect of oral dosing of concentrated water solutions (rat test animals): gelation in the stomach of the rat test animals and resultant toxic effects; Final Concentration (solubility in water) [2]: 51.6 mg/mL
CEPN.2HCl [16-0203-012-105-23] | 36.5 | 
COc1ccc2cc1Oc1ccc(cc1)C[C@H]1c3c(cc4c(c3Oc3cc5c(cc3OC)CCN(C)[C@@H]5C2)OCO4)CCN1C [HBr salt, Cepharanthine bis-hydrobromide] |  | solubility ([2]; read-out: Final Concentration (solubility in water)): 17.1 mg/mL
Cepharanthine bis-pyruvate [Pyruvic acid salt] |  | Final Concentration (solubility in water) [2]: 488 mg/mL
CEPN.2HCl [16-0203-012-097-27] | 31.9 | 

Now from value to compound, other results behind:

Sample solubility [1] [mg/mL] | Compound | further results
38.7 | CEPN.2HCl [16-0203-012-098-10] | 
33.9 | CEPN.2HCl [16-0203-012-119-35] | 
39.7 | CEPN.2HCl [16-0203-012-098-27] | 
